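Briefly, cells in 96-well plates were exposed to five compound concentrations for 48 h, and endpoints were estimated by linear interpolation. Abbreviation: GI50, concentration required for 50% inhibition of growth.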 The source made the active and inactive calls. No stated cut-off is given here; in the data, active = GI50 up to about 1.1 µM and inactive = higher.
How the values were obtained:
Test in all cases: DTP human tumour cell line panel, 48 h
[1] = tested on: DLD-1
[2] = tested on: LXFL 529
[3] = tested on: KM-20L2
[4] = tested on: DMS-114
[5] = tested on: M19-MEL
[6] = tested on: SNB-78
[7] = tested on: HOP-18
[8] = tested on: RXF 631
[9] = tested on: DMS-273

Compound: COC(=O)C1(C)NCCc2c1[nH]c1ccccc21 (stereo unspecified)
- GI50 [1]: > 100 µM (inactive)
- GI50 [2]: > 100 µM (inactive)
- GI50 [3]: > 100 µM (inactive)
- GI50 [4]: > 100 µM (inactive)
- GI50 [5]: > 100 µM (inactive)

Compound: C=C1CCC(OC(C)=O)C2(C)C(OC(C)=O)CC3OC3(C)C2C(OC(C)=O)C2C(C)C(=O)OC2C1Cl (stereo unspecified)
- GI50 [1]: > 100 µM (inactive)
- GI50 [2]: > 100 µM (inactive)
- GI50 [3]: > 100 µM (inactive)
- GI50 [6]: > 100 µM (inactive)
- GI50 [4]: > 100 µM (inactive)
- GI50 [7]: > 100 µM (inactive)
- GI50 [8]: > 100 µM (inactive)
- GI50 [5]: > 100 µM (inactive)
- GI50 [9]: > 100 µM (inactive)

Compound: Cc1nc2ccccn2c1/N=N/c1ccc(C(=O)NN)cc1
- GI50 [1]: 52.4 µM (inactive)
- GI50 [2]: 38.5 µM (inactive)
- GI50 [3]: 92.9 µM (inactive)
- GI50 [6]: > 100 µM (inactive)
- GI50 [4]: 17.4 µM (inactive)
- GI50 [7]: 70.6 µM (inactive)
- GI50 [8]: 31.7 µM (inactive)
- GI50 [5]: > 100 µM (inactive)

Compound: C[S+]=c1sc2ccccc2s1
- GI50 [1]: > 100 µM (inactive)
- GI50 [2]: > 100 µM (inactive)
- GI50 [3]: > 100 µM (inactive)
- GI50 [4]: > 100 µM (inactive)
- GI50 [7]: > 100 µM (inactive)
- GI50 [8]: > 100 µM (inactive)
- GI50 [5]: > 100 µM (inactive)
- GI50 [9]: > 100 µM (inactive)

Compound: CN(C)C(=N)c1ccccc1
- GI50 [2]: > 100 µM (inactive)
- GI50 [3]: > 100 µM (inactive)
- GI50 [6]: > 100 µM (inactive)
- GI50 [4]: > 100 µM (inactive)
- GI50 [5]: > 100 µM (inactive)
- GI50 [9]: > 100 µM (inactive)

Compound: COC(=O)C1CC2CC(=NNC(N)=O)CC2C1 (stereo unspecified)
- GI50 [1]: > 100 µM (inactive)
- GI50 [2]: > 100 µM (inactive)
- GI50 [6]: > 100 µM (inactive)
- GI50 [4]: > 100 µM (inactive)
- GI50 [5]: > 100 µM (inactive)
- GI50 [9]: > 100 µM (inactive)

Compound: COc1ccc(C(=O)C(C(=O)CC(=O)Nc2cccc(C(F)(F)F)c2)c2ccc(OC)cc2)cc1 (stereo unspecified)
- GI50 [1]: > 100 µM (inactive)
- GI50 [2]: > 100 µM (inactive)
- GI50 [3]: > 100 µM (inactive)
- GI50 [6]: > 100 µM (inactive)
- GI50 [4]: > 100 µM (inactive)
- GI50 [8]: > 100 µM (inactive)
- GI50 [5]: > 100 µM (inactive)
- GI50 [9]: > 100 µM (inactive)

Compound: CCc1ccccc1N1C(=O)C(=O)C(c2nc3ccccc3s2)C(=O)C1=O
- GI50 [1]: 43.2 µM (inactive)
- GI50 [2]: 75.7 µM (inactive)
- GI50 [3]: > 100 µM (inactive)
- GI50 [6]: > 100 µM (inactive)
- GI50 [4]: 79.3 µM (inactive)
- GI50 [7]: > 100 µM (inactive)
- GI50 [8]: 44.3 µM (inactive)
- GI50 [5]: > 100 µM (inactive)

Compound: C[C@]12CCC(=O)C(OC(=O)c3ccc([N+](=O)[O-])cc3)=C1CCC2=O
- GI50 [1]: > 100 µM (inactive)
- GI50 [2]: > 100 µM (inactive)
- GI50 [3]: > 100 µM (inactive)
- GI50 [6]: > 100 µM (inactive)
- GI50 [4]: > 100 µM (inactive)
- GI50 [7]: > 100 µM (inactive)
- GI50 [5]: > 100 µM (inactive)
- GI50 [9]: > 100 µM (inactive)

Compound: COC(=O)CCC(NC(=S)N/N=C(\C)c1cnccn1)C(=O)OC (stereo unspecified)
- GI50 [1]: 48 µM (inactive)
- GI50 [2]: 57.7 µM (inactive)
- GI50 [3]: 38.6 µM (inactive)
- GI50 [6]: > 100 µM (inactive)
- GI50 [4]: 22.1 µM (inactive)
- GI50 [7]: 56.1 µM (inactive)
- GI50 [8]: 73.5 µM (inactive)
- GI50 [5]: 39.5 µM (inactive)

Compound: CC1=C(C(=O)Nc2ccccc2C)C(c2ccc(C3C(C(=O)Nc4ccccc4C)=C(C)NC(C)=C3C(=O)Nc3ccccc3C)cc2)C(C(=O)Nc2ccccc2C)=C(C)N1
- GI50 [1]: 2.27 µM (inactive)
- GI50 [2]: 2.84 µM (inactive)
- GI50 [3]: 3.74 µM (inactive)
- GI50 [6]: 4.16 µM (inactive)
- GI50 [4]: 3.75 µM (inactive)
- GI50 [8]: 12.8 µM (inactive)
- GI50 [5]: 3.83 µM (inactive)
- GI50 [9]: 3.16 µM (inactive)

Compound: N#CC(C#N)=c1ccc(=C2N3CCCC3CN2C23CC4CC(CC(C4)C2)C3)cc1 (stereo unspecified)
- GI50 [1]: > 100 µM (inactive)
- GI50 [2]: > 100 µM (inactive)
- GI50 [3]: > 100 µM (inactive)
- GI50 [6]: > 100 µM (inactive)
- GI50 [4]: > 100 µM (inactive)
- GI50 [7]: > 100 µM (inactive)
- GI50 [5]: > 100 µM (inactive)
- GI50 [9]: > 100 µM (inactive)

Compound: Cc1ccc(S(=O)(=O)N/N=C2\C(=O)C3CC2C(Cl)C3Cl)cc1 (stereo unspecified)
- GI50 [1]: > 100 µM (inactive)
- GI50 [2]: > 100 µM (inactive)
- GI50 [3]: > 100 µM (inactive)
- GI50 [4]: > 100 µM (inactive)
- GI50 [7]: > 100 µM (inactive)
- GI50 [8]: > 100 µM (inactive)
- GI50 [9]: > 100 µM (inactive)

Compound: C[n+]1c2ccccc2c(CNC(CS)C(=O)O)c2ccccc21 (stereo unspecified)
- GI50 [1]: 24.6 µM (inactive)
- GI50 [2]: 32.4 µM (inactive)
- GI50 [3]: 20.4 µM (inactive)
- GI50 [6]: 34.3 µM (inactive)
- GI50 [7]: 49.1 µM (inactive)
- GI50 [8]: 24.9 µM (inactive)
- GI50 [5]: 27.7 µM (inactive)
- GI50 [9]: 18.5 µM (inactive)

Compound: Nc1cccc(C(=O)/C=C/c2ccccc2O)c1
- GI50 [1]: > 100 µM (inactive)
- GI50 [2]: 71.4 µM (inactive)
- GI50 [3]: > 100 µM (inactive)
- GI50 [6]: > 100 µM (inactive)
- GI50 [4]: 46.7 µM (inactive)
- GI50 [7]: 84.3 µM (inactive)
- GI50 [5]: > 100 µM (inactive)
- GI50 [9]: > 100 µM (inactive)

Compound: [C-]#[N+][C@@H]1C2[C@H](CC[C@@]1(C)O)C(=C)CC[C@@H]2[C@@]1(C)CC[C@H](Cl)C(C)(C)O1 (stereo partly specified)
- GI50 [1]: 2.88 µM (inactive)
- GI50 [2]: 3.57 µM (inactive)
- GI50 [3]: 6.68 µM (inactive)
- GI50 [4]: 1.5 µM (inactive)
- GI50 [7]: 2.71 µM (inactive)
- GI50 [8]: 6.62 µM (inactive)
- GI50 [5]: 4.12 µM (inactive)

Compound: CCC12C=C(C(=O)OC)N3c4ccccc4C4CCN(CCC1)C2C43 (stereo unspecified)
- GI50 [1]: 66.7 µM (inactive)
- GI50 [2]: 87.1 µM (inactive)
- GI50 [3]: 19.1 µM (inactive)
- GI50 [6]: > 100 µM (inactive)
- GI50 [4]: 63 µM (inactive)
- GI50 [7]: > 100 µM (inactive)
- GI50 [5]: 75.9 µM (inactive)
- GI50 [9]: 59.6 µM (inactive)

Compound: C#CC1(O)CCC2C3CCc4cc(Oc5nc(F)nc(-c6c7ccccc7c7n6CCS7)n5)ccc4C3CC[C@@]21C (stereo partly specified)
- GI50 [1]: 39.8 µM (inactive)
- GI50 [2]: 25.1 µM (inactive)
- GI50 [3]: 29.2 µM (inactive)
- GI50 [4]: 11.2 µM (inactive)
- GI50 [5]: 33.9 µM (inactive)
- GI50 [9]: 27.2 µM (inactive)

Compound: CC1=N/C(=C\c2cccc3ccccc23)C(=O)O1
- GI50 [1]: > 100 µM (inactive)
- GI50 [2]: > 100 µM (inactive)
- GI50 [3]: > 100 µM (inactive)
- GI50 [6]: > 100 µM (inactive)
- GI50 [4]: > 100 µM (inactive)
- GI50 [7]: 10.6 µM (inactive)
- GI50 [8]: > 100 µM (inactive)
- GI50 [5]: > 100 µM (inactive)

Compound: CC1CC(=O)Nc2ccccc2N1C(=O)CN1CCC(CCCCN(C)C)CC1 (stereo unspecified)
- GI50 [1]: > 100 µM (inactive)
- GI50 [2]: > 100 µM (inactive)
- GI50 [3]: > 100 µM (inactive)
- GI50 [6]: > 100 µM (inactive)
- GI50 [4]: > 100 µM (inactive)
- GI50 [7]: > 100 µM (inactive)
- GI50 [8]: > 100 µM (inactive)
- GI50 [5]: > 100 µM (inactive)
- GI50 [9]: > 100 µM (inactive)

Compound: O=C(CC1Sc2ccccc2NC1=O)Nc1ccc([N+](=O)[O-])cc1[N+](=O)[O-] (stereo unspecified)
- GI50 [1]: 15.3 µM (inactive)
- GI50 [2]: 15.3 µM (inactive)
- GI50 [3]: 26.7 µM (inactive)
- GI50 [6]: 21.2 µM (inactive)
- GI50 [4]: 14.2 µM (inactive)
- GI50 [7]: 3.39 µM (inactive)
- GI50 [8]: 17.1 µM (inactive)
- GI50 [5]: 16.1 µM (inactive)

Compound: COc1ccc2nc3cc(Cl)ccc3c(NC(C)CCCN(CCCl)CCCl)c2c1 (stereo unspecified)
- GI50 [1]: 0.524 µM (active)
- GI50 [2]: 0.439 µM (active)
- GI50 [3]: 0.356 µM (active)
- GI50 [6]: 0.622 µM (active)
- GI50 [4]: 0.733 µM (active)
- GI50 [5]: 0.598 µM (active)
- GI50 [9]: 0.109 µM (active)

— ChEMBL document CHEMBL1201862, “PubChem BioAssay data set” (2004)
